Measured values published in paper PMC8119466, “A screen of FDA-approved drugs identifies inhibitors of protein tyrosine phosphatase 4A3 (PTP4A3 or PRL-3)” (Scientific Reports, 2021).
Counter-ions that a name gives are not always drawn. Like-named read-outs stand apart in the source and are kept apart here.

How the values were obtained:
Format in all cases: biochemical
[1] = molecular target: T1, recombinant PRL-3 (Homo sapiens, UniProt O75365); assay: In vitro phosphatase assay (DiFMUP hydrolysis), PRL-3; also: test concentration or dose not given here
T1 construct: 6xHis (N, cleaved yes); made in house; host or cells: E. coli One Shot BL21 Star

[2] = molecular target: T2, recombinant PRL-2 (Homo sapiens, UniProt Q12974); assay: In vitro phosphatase assay (DiFMUP hydrolysis), PRL-2;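 also: PRL-2 activity read as DiFMUP hydrolysis after 20 min at room temperature with drug, enzyme first pre-reduced at 4 °C for 20 min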
T2 construct: 6xHis (N, cleaved yes); made in house; host or cells: E. coli One Shot BL21 Star
T2 sequence (Q12974 1-167): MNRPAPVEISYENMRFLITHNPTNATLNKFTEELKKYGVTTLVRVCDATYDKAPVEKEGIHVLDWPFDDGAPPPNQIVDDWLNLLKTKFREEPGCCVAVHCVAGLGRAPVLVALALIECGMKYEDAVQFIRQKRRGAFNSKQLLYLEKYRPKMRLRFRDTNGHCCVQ

[3] = molecular target: T3, recombinant PRL-1 (Homo sapiens, UniProt Q93096); assay: In vitro phosphatase assay (DiFMUP hydrolysis), PRL-1; also: test concentration or dose not given here
T3 construct: 6xHis (N, cleaved yes); made in house; host or cells: E. coli One Shot BL21 Star
T3 sequence (Q93096 1-173): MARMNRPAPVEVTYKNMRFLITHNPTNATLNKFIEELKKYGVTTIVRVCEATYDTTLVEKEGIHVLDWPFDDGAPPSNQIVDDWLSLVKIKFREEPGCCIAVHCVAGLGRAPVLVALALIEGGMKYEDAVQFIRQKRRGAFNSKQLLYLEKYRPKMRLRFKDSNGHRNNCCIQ

[4] = FDA-approved drug screen, activity compared to DMSO
[5] = FDA-approved drug screen, compared to DMSO

T1 sequence (O75365 whole entry): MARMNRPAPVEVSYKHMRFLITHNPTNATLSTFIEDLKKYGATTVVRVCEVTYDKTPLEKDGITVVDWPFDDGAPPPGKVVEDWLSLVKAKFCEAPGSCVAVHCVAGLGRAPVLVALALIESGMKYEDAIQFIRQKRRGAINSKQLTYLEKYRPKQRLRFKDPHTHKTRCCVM

Structure (SMILES) | % Phosphatase Activity (compared to DMSO) PRL-3 [1, 5] [%] | % Phosphatase Activity (compared to DMSO) PRL-2 [2, 5] [%] | % Phosphatase Activity (compared to DMSO) PRL-1 [3, 5] [%] | further results
CCOC(=O)[C@@H](N)Cc1ccc(-c2cc(O[C@H](c3ccc(Cl)cc3-n3ccc(C)n3)C(F)(F)F)nc(N)n2)cc1.O=C(O)CNC(=O)c1ccccc1 [Telotristat Etiprate (LX 1606 Hippurate)] |  |  |  | % Phosphatase Activity (compared to DMSO) PRL-3 [1, 4]: 97%; % Phosphatase Activity (compared to DMSO) PRL-2 [2, 4]: 108%; % Phosphatase Activity (compared to DMSO) PRL-1 [3, 4]: 106%
CC(=O)NS(=O)(=O)c1ccc(N)cc1 [Sulfacetamide Sodium] |  |  |  | % Phosphatase Activity (compared to DMSO) PRL-3 [1, 4]: 74%; % Phosphatase Activity (compared to DMSO) PRL-2 [2, 4]: 109%; % Phosphatase Activity (compared to DMSO) PRL-1 [3, 4]: 91%
Cc1nc2n(c(=O)c1CCN1CCC(c3noc4cc(F)ccc34)CC1)CCCC2O (stereo not drawn) [Paliperidone] | 75 | 103 | 102 | 
COc1cc2c(Oc3ccc4[nH]c(C)cc4c3F)ncnc2cc1OCCCN1CCCC1 [Cediranib (AZD2171)] | 90 | 105 | 100 | 
C[C@H](CS)C(=O)N1CCC[C@H]1C(=O)O [Captopril] | 82 | 99 | 90 | 
CC[C@@H]1C(=O)N(C)c2cnc(Nc3ccc(C(=O)N[C@H]4CC[C@H](N5CCN(CC6CC6)CC5)CC4)cc3OC)nc2N1C(C)C [Volasertib (BI 6727)] |  |  |  | % Phosphatase Activity (compared to DMSO) PRL-3 [1, 4]: 87%; % Phosphatase Activity (compared to DMSO) PRL-2 [2, 4]: 112%; % Phosphatase Activity (compared to DMSO) PRL-1 [3, 4]: 97%
CC(=O)NC(CCC(N)=O)C(=O)O (stereo not drawn) [Aceglutamide] | 87 | 96 | 107 | 
CS(=O)(=O)c1ccc(C2=C(c3ccccc3)C(=O)OC2)cc1 [Rofecoxib] | 92 | 120 | 110 | 
COC(=O)N/N=C/c1c[n+]([O-])c2ccccc2[n+]1[O-] [Carbadox] | 99 | 103 | 96 | 
CN(C)CCC[C@@]1(c2ccc(F)cc2)OCc2cc(C#N)ccc21 [Escitalopram Oxalate] | 67 | 117 | 89 | 
Cl.N=C(N)N [Guanidine HCl] | 86 | 108 | 103 | 
C=CC(=O)N1CCC(Oc2cc3c(Nc4ccc(Cl)c(Cl)c4F)ncnc3cc2OC)CC1 [Poziotinib (HM781-36B)] | 106 | 80 | 96 | 
NC(=O)CN1CCCC1=O [Piracetam] | 83 | 96 | 98 | 
O=C(O[C@H]1C[N+]2(CCCOc3ccccc3)CCC1CC2)C(O)(c1cccs1)c1cccs1 [Aclidinium Bromide] |  |  |  | % Phosphatase Activity (compared to DMSO) PRL-3 [1]: 90%; % Phosphatase Activity (compared to DMSO) PRL-2 [2]: 117%; % Phosphatase Activity (compared to DMSO) PRL-1 [3]: 106%
O=C(O)CCC(=O)Nc1ccc(S(=O)(=O)Nc2nccs2)cc1 [Succinylsulfathiazole] |  |  |  | % Phosphatase Activity (compared to DMSO) PRL-3 [1, 4]: 85%; % Phosphatase Activity (compared to DMSO) PRL-2 [2, 4]: 97%; % Phosphatase Activity (compared to DMSO) PRL-1 [3, 4]: 85%
CC[C@H](Nc1ncnc2[nH]cnc12)c1nc2cccc(F)c2c(=O)n1-c1ccccc1 [CAL-101 (Idelalisib, GS-1101)] | 77 | 104 | 102 | 
COc1cnc(NS(=O)(=O)c2ccc(N)cc2)nc1 [Sulfameter] |  |  |  | % Phosphatase Activity (compared to DMSO) PRL-3 [1, 4]: 91%; % Phosphatase Activity (compared to DMSO) PRL-2 [2, 4]: 109%; % Phosphatase Activity (compared to DMSO) PRL-1 [3, 4]: 106%
COc1ccc2[n-]c([S@@+]([O-])Cc3ncc(C)c(OC)c3C)nc2c1.[Na+] [Esomeprazole Sodium] | 92 | 124 | 112 | 
Oc1cc(Cl)ccc1Oc1ccc(Cl)cc1Cl [Triclosan] |  |  |  | % Phosphatase Activity (compared to DMSO) PRL-3 [1, 4]: 96%; % Phosphatase Activity (compared to DMSO) PRL-2 [2, 4]: 106%; % Phosphatase Activity (compared to DMSO) PRL-1 [3, 4]: 100%
CCOC(=O)C1=C(COCCN)NC(C)=C(C(=O)OC)C1c1ccccc1Cl (stereo not drawn) [Amlodipine] | 149 | 157 | 145 | 

Structure (SMILES) | % Phosphatase Activity (compared to DMSO) PRL-3 [1, 5] [%] | % Phosphatase Activity (compared to DMSO) PRL-2 [2, 5] [%] | % Phosphatase Activity (compared to DMSO) PRL-1 [3, 5] [%] | further results
Cc1cccc(Cc2c[nH]cn2)c1C [Detomidine HCl] | 81 | 107 | 88 | 
CC(C)(C)C(=O)C(Oc1ccc(Cl)cc1)n1ccnc1 (stereo not drawn) [Climbazole] | 73 | 94 | 87 | 
NS(=O)(=O)NCCNc1nonc1/C(=N/O)Nc1ccc(F)c(Br)c1 [Epacadostat (INCB024360)] | 95 | 98 | 111 | 
CCCCC(=O)O[C@H]1CC[C@H]2[C@@H]3CCc4cc(O)ccc4[C@H]3CC[C@]12C [Estradiol valerate] | 85 | 99 | 103 | 
COc1cc(C(=O)NC2CCCNC2)cc(OC)c1OC (stereo not drawn) [Troxipide] |  |  |  | % Phosphatase Activity (compared to DMSO) PRL-3 [1, 4]: 79%; % Phosphatase Activity (compared to DMSO) PRL-2 [2, 4]: 110%; % Phosphatase Activity (compared to DMSO) PRL-1 [3, 4]: 95%
CN(C)C(=O)Oc1ccc[n+](C)c1 [Pyridostigmine Bromide] | 77 | 109 | 106 | 
NC(=O)CCC(N)C(=O)O (stereo in doubt) [D-glutamine] | 94 | 80 | 96 | 
COc1ccc(CN2CCN(C(c3ccc(F)cc3)c3ccc(F)cc3)CC2)c(OC)c1OC.Cl.Cl [Lomerizine HCl] | 84 | 118 | 97 | 
CC(=O)O[C@]1(C(C)=O)CC[C@H]2[C@@H]3C[C@H](C)C4=CC(=O)C=C[C@]4(C)[C@@]3(F)[C@@H](O)C[C@@]21C [Fluorometholone Acetate] | 79 | 96 | 91 | 
Oc1cccc(O)c1 [Resorcinol] | 77 | 88 | 100 | 
COc1ccccc1Oc1c(NS(=O)(=O)c2ccc(C(C)(C)C)cc2)nc(-c2ncccn2)nc1OCCO [Bosentan] | 71 | 84 | 83 | 
Cc1ccc(Nc2nccc(N(C)c3ccc4c(C)n(C)nc4c3)n2)cc1S(N)(=O)=O.Cl [Pazopanib HCl] | 82 | 83 | 86 | 
O=C(/C=C\n1cnc(-c2cc(C(F)(F)F)cc(C(F)(F)F)c2)n1)NNc1cnccn1 [KPT-330] | 97 | 69 | 87 | 
CCn1cc(C(=O)O)c(=O)c2cnc(N3CCCC3)nc21 [Piromidic Acid] | 96 | 106 | 105 | 
N=C(N)c1ccc(OCCCCCOc2ccc(C(=N)N)cc2)cc1 [Pentamidine] | 95 | 116 | 113 | 
Cl.Cl.Fc1ccc(C(c2ccc(F)cc2)N2CCN(C/C=C/c3ccccc3)CC2)cc1 [Flunarizine 2HCl] | 101 | 107 | 111 | 
NC(=O)[C@@H](CCC(F)(F)F)N(Cc1ccc(-c2ncon2)cc1F)S(=O)(=O)c1ccc(Cl)cc1 [Avagacestat (BMS-708163)] | 73 | 85 | 89 | 
Oc1c(Br)cc(Br)c2cccnc12 [Broxyquinoline] | 72 | 101 | 94 | 
CCCCCCCCOc1ccccc1C(=O)Nc1ccc(C(=O)OCC[N+](C)(CC)CC)cc1 [Otilonium Bromide] | 111 | 105 | 102 | 
CC1=C(CC(=O)O)c2cc(F)ccc2/C1=C\c1ccc([S+](C)[O-])cc1 (stereo not drawn) [Sulindac] |  |  |  | % Phosphatase Activity (compared to DMSO) PRL-3 [1, 4]: 85%; % Phosphatase Activity (compared to DMSO) PRL-2 [2, 4]: 96%; % Phosphatase Activity (compared to DMSO) PRL-1 [3, 4]: 83%
